pEC50: −log10 of the molar value.
Key:
[1] = test system: HCV genotype 1b (Con1) replicon in HUH-7 cells; assay: HCV replicon luciferase reporter assay, genotype 1b; format: cell-based; details: Hepatitis C virus, Huh-7, 72 h, HCV genotype 1b replicon luciferase, 3 days incubation, read-out: LE_1b (EC50, range)
Summary of the method: (§1)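 Replicon inhibition for both genotypes was measured as Renilla luciferase signal (EnduRen, 7.5 μM final, 2 h) after 3-day, 37° C exposure of replicon-bearing HUH-7 cells in 4% FCS DMEM, 0.5% DMSO. The 1b construct carries S1179I; the 1a H77 construct carries P1496L and S2204I. Twenty-point, 3-fold dilutions were fitted four-parametrically for EC50, and CC50 was taken from multiplexed Cell Titer-Blue.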

[2] = test system: HCV genotype 1a (H77 strain) replicon in HUH-7 cells; assay: HCV replicon luciferase reporter assay, genotype 1a; format: cell-based; details: Hepatitis C virus, Huh-7, 72 h, HCV genotype 1a replicon luciferase, 3 days incubation, read-out: LE_1a (EC50, range)
Summary of the method: as §1

| Structure (SMILES) | pEC50 [1] | pEC50 [2] |
| --- | --- | --- |
| CCOc1cc2cc(OC)ccc2c(O[C@@H]2C[C@H]3C(=O)N[C@]4(C(=O)NS(=O)(=O)C5(C)CC5)C[C@H]4/C=C\CC[C@@H](C)C[C@@H](C)[C@H](NC(=O)OC(C)(C)C(C)(F)F)C(=O)N3C2)n1 [Compound 3200, 3,3-difluoro-2-methylbutan-2-yl((2R,6S,7R,9R,13aS,14aR,16aS,Z)-2-((3-ethoxy-6-methoxyisoquinolin-1-yl)oxy)-7,9-dimethyl-14a-(((1-methylcyclopropyl)sulfonyl)carbamoyl)-5,16-dioxo-1,2,3,5,6,7,8,9,10,11,13a,14,14a,15,16,16a-hexadecahydrocyclopropa[e]pyrrolo[1,2-a][1,4]diazacyclopentadecin-6-yl)carbamate] | 9.00 to 9.29 | 9.00 to 9.29 |
| COc1ccc2c(O[C@@H]3C[C@H]4C(=O)N[C@]5(C(=O)NS(=O)(=O)C6(C)CC6)C[C@H]5/C=C\CC[C@@H](C)C[C@@H](C)[C@H](NC(=O)OC(C)(C)C(F)(F)F)C(=O)N4C3)nc(OC(C)C)cc2c1 [Compound 3202, 1,1,1-trifluoro-2-methylpropan-2-yl((2R,6S,7R,9R,13aS,14aR,16aS,Z)-2-((3-isopropoxy-6-methoxyisoquinolin-1-yl)oxy)-7,9-dimethyl-14a-(((1-methylcyclopropyl)sulfonyl)carbamoyl)-5,16-dioxo-1,2,3,5,6,7,8,9,10,11,13a,14,14a,15,16,16a-hexadecahydrocyclopropa[e]pyrrolo[1,2-a][1,4]diazacyclopentadecin-6-yl)carbamate] | 8.30 to 9.00 | 8.30 to 9.00 |
| COc1ccc2c(O[C@@H]3C[C@H]4C(=O)N[C@]5(C(=O)NS(=O)(=O)C6(C)CC6)C[C@H]5/C=C\CC[C@@H](C)C[C@@H](C)[C@H](NC(=O)OC(C)(C)C(C)(F)F)C(=O)N4C3)nc(OC(C)C)cc2c1 [Compound 3204, 3,3-difluoro-2-methylbutan-2-yl((2R,6S,7R,9R,13aS,14aR,16aS,Z)-2-((3-isopropoxy-6-methoxyisoquinolin-1-yl)oxy)-7,9-dimethyl-14a-(((1-methylcyclopropyl)sulfonyl)carbamoyl)-5,16-dioxo-1,2,3,5,6,7,8,9,10,11,13a,14,14a,15,16,16a-hexadecahydrocyclopropa[e]pyrrolo[1,2-a][1,4]diazacyclopentadecin-6-yl)carbamate] | 8.30 to 9.00 | 9.00 to 9.29 |
| CC[C@@H]1C[C@H](C)CC/C=C\[C@@H]2C[C@@]2(C(=O)NS(=O)(=O)C2(C)CC2)NC(=O)[C@@H]2C[C@@H](Oc3ncc(OC)c4cc(N(C)C)ccc34)CN2C(=O)[C@H]1NC(=O)OC(C)(C)C [Compound 3206, tert-butyl ((2R,6S,7R,9R,13aS,14aR,16aS,Z)-2-((6-(dimethylamino)-4-methoxyisoquinolin-1-yl)oxy)-7-ethyl-9-methyl-14a-(((1-methylcyclopropyl)sulfonyl)carbamoyl)-5,16-dioxo-1,2,3,5,6,7,8,9,10,11,13a,14,14a,15,16,16a-hexadecahydrocyclopropa[e]pyrrolo[1,2-a][1,4]diazacyclopentadecin-6-yl)carbamate] | 8.30 to 9.00 | 8.30 to 9.00 |
| CC[C@@H]1C[C@H](C)CC/C=C\[C@@H]2C[C@@]2(C(=O)NS(=O)(=O)C2(C)CC2)NC(=O)[C@@H]2C[C@@H](Oc3ncc(OC)c4cc(N(C)C)ccc34)CN2C(=O)[C@H]1NC(=O)OC(C)(C)C(F)(F)F [Compound 3208, 1,1,1-trifluoro-2-methylpropan-2-yl((2R,6S,7R,9R,13aS,14aR,16aS,Z)-2-((6-(dimethylamino)-4-methoxyisoquinolin-1-yl)oxy)-7-ethyl-9-methyl-14a-(((1-methylcyclopropyl)sulfonyl)carbamoyl)-5,16-dioxo-1,2,3,5,6,7,8,9,10,11,13a,14,14a,15,16,16a-hexadecahydrocyclopropa[e]pyrrolo[1,2-a][1,4]diazacyclopentadecin-6-yl)carbamate] | 9.00 to 9.29 | 8.30 to 9.00 |
| COc1cc2cc(F)ccc2c(O[C@@H]2C[C@H]3C(=O)N[C@]4(C(=O)NS(=O)(=O)C5(CF)CC5)C[C@H]4/C=C\CC[C@@H](C)C[C@@H](C)[C@H](NC(=O)OC(C)(C)C)C(=O)N3C2)n1 [Compound 3210, tert-butyl ((2R,6S,7R,9R,13aS,14aR,16aS,Z)-2-((6-fluoro-3-methoxyisoquinolin-1-yl)oxy)-14a-(((1-(fluoromethyl)cyclopropyl)sulfonyl)carbamoyl)-7,9-dimethyl-5,16-dioxo-1,2,3,5,6,7,8,9,10,11,13a,14,14a,15,16,16a-hexadecahydrocyclopropa[e]pyrrolo[1,2-a][1,4]diazacyclopentadecin-6-yl)carbamate] | 9.30 to 10.00 | 8.30 to 9.00 |
| CC[C@@H]1C[C@H](C)CC/C=C\[C@@H]2C[C@@]2(C(=O)NS(=O)(=O)C2(C)CC2)NC(=O)[C@@H]2C[C@@H](Oc3nc(OC)cc4cc(F)ccc34)CN2C(=O)[C@H]1NC(=O)OC(C)(C)C [Compound 3212, tert-butyl ((2R,6S,7R,9R,13aS,14aR,16aS,Z)-7-ethyl-2-((6-fluoro-3-methoxyisoquinolin-1-yl)oxy)-9-methyl-14a-(((1-methylcyclopropyl)sulfonyl)carbamoyl)-5,16-dioxo-1,2,3,5,6,7,8,9,10,11,13a,14,14a,15,16,16a-hexadecahydrocyclopropa[e]pyrrolo[1,2-a][1,4]diazacyclopentadecin-6-yl)carbamate] | 9.30 to 10.00 | 9.00 to 9.29 |
| COc1cc2cc(F)ccc2c(O[C@@H]2C[C@H]3C(=O)N[C@]4(C(=O)NS(=O)(=O)C5(CF)CC5)C[C@H]4/C=C\CC[C@@H](C)C[C@@H](C)[C@H](NC(=O)OC(C)(C)C(F)(F)F)C(=O)N3C2)n1 [Compound 3214, 1,1,1-trifluoro-2-methylpropan-2-yl((2R,6S,7R,9R,13aS,14aR,16aS,Z)-2-((6-fluoro-3-methoxyisoquinolin-1-yl)oxy)-14a-(((1-(fluoromethyl)cyclopropyl)sulfonyl)carbamoyl)-7,9-dimethyl-5,16-dioxo-1,2,3,5,6,7,8,9,10,11,13a,14,14a,15,16,16a-hexadecahydrocyclopropa[e]pyrrolo[1,2-a][1,4]diazacyclopentadecin-6-yl)carbamate] | 9.30 to 10.00 | 8.30 to 9.00 |
| CC[C@@H]1C[C@H](C)CC/C=C\[C@@H]2C[C@@]2(C(=O)NS(=O)(=O)C2(C)CC2)NC(=O)[C@@H]2C[C@@H](Oc3nc(OC)cc4cc(F)ccc34)CN2C(=O)[C@H]1NC(=O)OC(C)(C)C(C)(F)F [Compound 3216, 3,3-difluoro-2-methylbutan-2-yl((2R,6S,7R,9R,13aS,14aR,16aS,Z)-7-ethyl-2-((6-fluoro-3-methoxyisoquinolin-1-yl)oxy)-9-methyl-14a-(((1-methylcyclopropyl)sulfonyl)carbamoyl)-5,16-dioxo-1,2,3,5,6,7,8,9,10,11,13a,14,14a,15,16,16a-hexadecahydrocyclopropa[e]pyrrolo[1,2-a][1,4]diazacyclopentadecin-6-yl)carbamate] | 9.30 to 10.00 | 8.30 to 9.00 |
| COc1cc2cc(F)ccc2c(O[C@@H]2C[C@H]3C(=O)N[C@]4(C(=O)NS(=O)(=O)C5(CF)CC5)C[C@H]4/C=C\CC[C@@H](C)C[C@@H](C)[C@H](NC(=O)OC(C)(C)C(C)(F)F)C(=O)N3C2)n1 [Compound 3218, 3,3-difluoro-2-methylbutan-2-yl((2R,6S,7R,9R,13aS,14aR,16aS,Z)-2-((6-fluoro-3-methoxyisoquinolin-1-yl)oxy)-14a-(((1-(fluoromethyl)cyclopropyl)sulfonyl)carbamoyl)-7,9-dimethyl-5,16-dioxo-1,2,3,5,6,7,8,9,10,11,13a,14,14a,15,16,16a-hexadecahydrocyclopropa[e]pyrrolo[1,2-a][1,4]diazacyclopentadecin-6-yl)carbamate] | 9.30 to 10.00 | 8.30 to 9.00 |
| CC[C@@H]1C[C@H](C)CC/C=C\[C@@H]2C[C@@]2(C(=O)NS(=O)(=O)C2(C)CC2)NC(=O)[C@@H]2C[C@@H](Oc3nc(OC)cc4cc(F)ccc34)CN2C(=O)[C@H]1NC(=O)OC(C)(C)C(F)(F)F [Compound 3220, 1,1,1-trifluoro-2-methylpropan-2-yl((2R,6S,7R,9R,13aS,14aR,16aS,Z)-7-ethyl-2-((6-fluoro-3-methoxyisoquinolin-1-yl)oxy)-9-methyl-14a-(((1-methylcyclopropyl)sulfonyl)carbamoyl)-5,16-dioxo-1,2,3,5,6,7,8,9,10,11,13a,14,14a,15,16,16a-hexadecahydrocyclopropa[e]pyrrolo[1,2-a][1,4]diazacyclopentadecin-6-yl)carbamate] | 9.30 to 10.00 | 8.30 to 9.00 |
| CC[C@@H]1C[C@H](C)CC/C=C\[C@@H]2C[C@@]2(C(=O)NS(=O)(=O)C2(C)CC2)NC(=O)[C@@H]2C[C@@H](Oc3nccc4cc(OC)c(Cl)cc34)CN2C(=O)[C@H]1NC(=O)OC(C)(C)C(F)(F)F [Compound 3222, 1,1,1-trifluoro-2-methylpropan-2-yl((2R,6S,7R,9R,13aS,14aR,16aS,Z)-2-((7-chloro-6-methoxyisoquinolin-1-yl)oxy)-7-ethyl-9-methyl-14a-(((1-methylcyclopropyl)sulfonyl)carbamoyl)-5,16-dioxo-1,2,3,5,6,7,8,9,10,11,13a,14,14a,15,16,16a-hexadecahydrocyclopropa[e]pyrrolo[1,2-a][1,4]diazacyclopentadecin-6-yl)carbamate] | 8.30 to 9.00 | 8.30 to 9.00 |

Source: patent publication US9499550B2 (BRISTOL-MYERS SQUIBB COMPANY, priority 2012, dated 2016)
